In US10357477B2, “Anticancer compounds” (REGENTS OF THE UNIVERSITY OF MINNESOTA, priority 2016, dated 2019):

What follows are compounds tested on MIA PaCa-2 cells (assay: Cell viability assay (MTT) in MIA PaCa-2 cells). Conditions: Homo sapiens, antiproliferative activity, 72 h.
Assay type: cell-based
Experimental: MIA PaCa-2 cells (CRL-1420, ATCC) were maintained in DMEM media supplemented with 10% FBS, 2.5% HS, 1% GlutaMAX, 1% sodium pyruvate, 100 U/mL penicillin, and 100 μg/mL streptomycin. Cell culture media and additives were purchased from Gibco. Cells were plated in 96-well plates at |1−2.5|×10^4 cells per well in the DMEM growth media. One microliter of a 2-fold serially diluted compound solution in DMSO (Sigma) starting at 20 mM (100 μM final concentration) was added to each well. The final volume in each well was 200 μL, yielding a final DMSO concentration of 0.5%. Control wells contained 0.5% DMSO (100% viability) or 25% DMSO (background) and all reactions were done in triplicate. The plate was incubated for 72 h at 37° C. in a 5% CO2/95% air humidified atmosphere.
Measurement of cell viability was carried out using a modified method of Mosmann based on 3-(4,5-dimethylthiazol-2-yl)-2,5-diphenyltetrazolium bromide (MTT, Sigma). MTT solution was prepared fresh at 1 mg/mL in serum-free and phenol red-free RPMI 1640 media. After 200 μL of MTT solution was added to each well, the plate was incubated as described above for 3 h. The MTT solution was removed, and the formazan crystals were solubilized with 200 μL of isopropanol. The plate was read on a SpectraMax i3 spectrophotometer (Molecular Devices) at 570 nm for formazan and 650 nm for background subtraction. EC50 values were calculated by fitting the data in GraphPad Prism software. EC50 values were determined in triplicate.

SMILES	EC50 [µM]
Cc1nn(Cc2ccccc2)c(C)c1NC(=O)c1ccc(COc2ccccc2)cc1 [Compound A1, N-(1-Benzyl-3,5-dimethyl-1H-pyrazol-4-yl)-4-(phenoxymethyl)benzamide]	10
Cc1nn(Cc2ccc(C(N)=O)cc2)c(C)c1NC(=O)c1ccc(COc2ccccc2)cc1 [Compound A2a, N-(1-(4-Carbamoylbenzyl)-3,5-dimethyl-1H-pyrazol-4-yl)-4-(phenoxymethyl)benzamide]	> 100
Cc1nn(Cc2cccc(C(=O)Nc3ccccc3)c2)c(C)c1NC(=O)c1ccc(COc2ccccc2)cc1 [Compound A4d, 3-((3,5-Dimethyl-4-(4-(phenoxymethyl)benzamido)-1H-pyrazol-1-yl)methyl)-N-phenylbenzamide]	6.4
CNC(=O)c1cccc(Cn2nc(C)c(N(C)C(=O)c3ccc(COc4ccccc4)cc3)c2C)c1 [Compound B1, N-(3,5-Dimethyl-1-(3-(methylcarbamoyl)benzyl)-1H-pyrazol-4-yl)-N-methyl-4-(phenoxymethyl)benzamide]	17
CNC(=O)c1cccc(Cn2nc(C)c(NCc3ccc(COc4ccccc4)cc3)c2C)c1 [Compound B2, 3-((3,5-Dimethyl-4-((4-(phenoxymethyl)benzyl)amino)-1H-pyrazol-1-yl)methyl)-N-methylbenzamide]	6.1
CNC(=O)c1cccc(Cn2nc(C)c(NS(=O)(=O)c3ccc(COc4ccccc4)cc3)c2C)c1 [Compound B3, 3-((3,5-Dimethyl-4-((4-(phenoxymethyl)phenyl)sulfonamido)-1H-pyrazol-1-yl)methyl)-N-methylbenzamide]	25
CNC(=O)c1cccc(Cn2nc(C)c(NC(=O)c3ccc(CSc4ccccc4)cc3)c2C)c1 [Compound C1, 3-((3,5-Dimethyl-4-(4-((phenylthio)methyl)benzamido)-1H-pyrazol-1-yl)methyl)-N-methylbenzamide]	8.3
CNC(=O)c1cccc(Cn2nc(C)c(NC(=O)c3ccc(CNc4ccccc4)cc3)c2C)c1 [Compound C2, 3-((3,5-Dimethyl-4-(4-((phenylamino)methyl)benzamido)-1H-pyrazol-1-yl)methyl)-N-methylbenzamide]	17
CNC(=O)c1cccc(Cn2nc(C)c(NC(=O)c3cccc(COc4ccccc4)c3)c2C)c1 [Compound C6, N-(3,5-Dimethyl-1-(3-(methylcarbamoyl)benzyl)-1H-pyrazol-4-yl)-3-(phenoxymethyl)benzamide]	32
CNC(=O)c1cccc(Cn2nc(C)c(NC(=O)c3ccc(COC4CCCCC4)cc3)c2C)c1 [Compound C7, 3-((4-(4-((Cyclohexyloxy)methyl)benzamido)-3,5-dimethyl-1H-pyrazol-1-yl)methyl)-N-methylbenzamide]	14

Next, values leading:

EC50 [µM]	SMILES
9.1	CNC(=O)c1cccc(Cn2nc(C)c(NC(=O)c3ccc(COc4ccc5ccccc5c4)cc3)c2C)c1 [Compound D1, 3-((3,5-Dimethyl-4-(4-((naphthalen-2-yloxy)methyl)benzamido)-1H-pyrazol-1-yl)methyl)-N-methylbenzamide]
10	CNC(=O)c1cccc(Cn2nc(C)c(NC(=O)c3ccc(COc4cccc(C#N)c4)cc3)c2C)c1 [Compound D7b, 3-((4-(4-((3-Cyanophenoxy)methyl)benzamido)-3,5-dimethyl-1H-pyrazol-1-yl)methyl)-N-methylbenzamide]
11	CNC(=O)c1cccc(Cn2nc(C)c(NC(=O)c3ccc(COc4ccccc4[N+](=O)[O-])cc3)c2C)c1 [Compound D8a, 3-((3,5-Dimethyl-4-(4-((2-nitrophenoxy)methyl)benzamido)-1H-pyrazol-1-yl)methyl)-N-methylbenzamide]
10	CNC(=O)c1cccc(Cn2nc(C)c(NC(=O)c3ccc(COc4cccc([N+](=O)[O-])c4)cc3)c2C)c1 [Compound D8b, 3-((3,5-Dimethyl-4-(4-((3-nitrophenoxy)methyl)benzamido)-1H-pyrazol-1-yl)methyl)-N-methylbenzamide]
9.7	CNC(=O)c1cccc(Cn2nc(C)c(NC(=O)c3ccc(COc4ccc([N+](=O)[O-])cc4)cc3)c2C)c1 [Compound D8c, 3-((3,5-Dimethyl-4-(4-((4-nitrophenoxy)methyl)benzamido)-1H-pyrazol-1-yl)methyl)-N-methylbenzamide]
6.7	CNC(=O)c1cccc(Cn2nc(C)c(NC(=O)c3ccc(COc4ccc(C(F)(F)F)cc4C)nc3)c2C)c1 [Compound E5a, N-(3,5-Dimethyl-1-(3-(methylcarbamoyl)benzyl)-1H-pyrazol-4-yl)-6-((2-methyl-4-(trifluoromethyl)phenoxy)methyl)nicotinamide]
9.4	CNC(=O)c1cc(Cn2nc(C)c(NC(=O)c3ccc(COc4ccc(C(F)(F)F)cc4C)nc3)c2C)ccn1 [Compound E5b, 4-((3,5-Dimethyl-4-(6-((2-methyl-4-(trifluoromethyl)phenoxy)methyl)nicotinamido)-1H-pyrazol-1-yl)methyl)-N-methylpicolinamide]
8.4	CNC(=O)c1cccc(Cn2nc(C)c(NC(=O)c3ccc(Oc4ccccc4)cc3)c2C)c1 [Compound E6a, 3-((3,5-Dimethyl-4-(4-phenoxybenzamido)-1H-pyrazol-1-yl)methyl)-N-methylbenzamide]
4.6	CNC(=O)c1cccc(Cn2nc(C)c(NC(=O)c3ccc(Oc4ccc(C(F)(F)F)cc4)cc3)c2C)c1 [Compound E6b, 3-((3,5-Dimethyl-4-(4-(4-(trifluoromethyl)phenoxy)-benzamido)-1H-pyrazol-1-yl)methyl)-N-methylbenzamide]
1.2	CNC(=O)c1cccc(Cn2nc(C)c(NC(=O)c3ccc(Oc4ccc(C(F)(F)F)cc4C)cc3)c2C)c1 [Compound E6c, 3-((3,5-Dimethyl-4-(4-(2-methyl-4-(trifluoromethyl)phenoxy)benzamido)-1H-pyrazol-1-yl)methyl)-N-methylbenzamide]
8.1	CNC(=O)c1cc(Cn2nc(C)c(NC(=O)c3ccc(Oc4ccc(C(F)(F)F)cc4)cc3)c2C)ccn1 [Compound E7a, 4-((3,5-Dimethyl-4-(4-(4-(trifluoromethyl)phenoxy)-benzamido)-1H-pyrazol-1-yl)methyl)-N-methylpicolinamide]
10	CNC(=O)c1cc(Cn2nc(C)c(NC(=O)c3ccc(Oc4ccc(C(F)(F)F)cc4C)cc3)c2C)ccn1 [Compound E7b, 4-((3,5-Dimethyl-4-(4-(2-methyl-4-(trifluoromethyl)phenoxy)-benzamido)-1H-pyrazol-1-yl)methyl)-N-methylpicolinamide]
22	CNC(=O)c1cccc(Cn2nc(C)c(NC(=O)c3ccc(C(C)Oc4ccccc4)cc3)c2C)c1 (stereo not shown) [Compound F1, 3-((3,5-Dimethyl-4-(4-(1-phenoxyethyl)benzamido)-1H-pyrazol-1-yl)methyl)-N-methylbenzamide]
7.7	CNC(=O)c1cccc(C(C)n2nc(C)c(NC(=O)c3ccc(COc4ccccc4)cc3)c2C)c1 (stereo not shown) [Compound F2, 3-(1-(3,5-Dimethyl-4-(4-(phenoxymethyl)benzamido)-1H-pyrazol-1-yl)ethyl)-N-methylbenzamide]
2.4	CNC(=O)c1cccc(C(C)n2nc(C)c(NC(=O)c3ccc(COc4ccc(C(F)(F)F)cc4C)cc3)c2C)c1 (stereo not shown) [Compound F3, 3-(1-(3,5-Dimethyl-4-(4-((2-methyl-4-(trifluoromethyl)phenoxy)methyl)benzamido)-1H-pyrazol-1-yl)ethyl)-N-methylbenzamide]
4	CNC(=O)c1cc(C(C)n2nc(C)c(NC(=O)c3ccc(COc4ccc(C(F)(F)F)cc4C)cc3)c2C)ccn1 (stereo not shown) [Compound F4, 4-(1-(3,5-Dimethyl-4-(4-((2-methyl-4-(trifluoromethyl)phenoxy)methyl)benzamido)-1H-pyrazol-1-yl)ethyl)-N-methylpicolinamide]
> 100	CNC(=O)c1cccc(Cn2nc(C)c(NC(=O)c3ccc(COc4ccccn4)cc3)c2C)c1 [Compound G1, 3-((3,5-Dimethyl-4-(4-((pyridin-2-yloxy)methyl)benzamido)-1H-pyrazol-1-yl)methyl)-N-methylbenzamide]
24	CNC(=O)c1cccc(Cn2nc(C)c(NC(=O)c3ccc(COc4cccnc4)cc3)c2C)c1 [Compound G2, 3-((3,5-Dimethyl-4-(4-((pyridin-3-yloxy)methyl)benzamido)-1H-pyrazol-1-yl)methyl)-N-methylbenzamide]
99	CNC(=O)c1cccc(Cn2nc(C)c(NC(=O)c3ccc(COc4ccncc4)cc3)c2C)c1 [Compound G3, 3-((3,5-Dimethyl-4-(4-((pyridin-4-yloxy)methyl)benzamido)-1H-pyrazol-1-yl)methyl)-N-methylbenzamide]

What follows are compounds tested on Panc-1 cells (assay: Cell viability assay (MTT) in Panc-1 cells). Conditions: Homo sapiens, antiproliferative activity, 72 h.
Assay type: cell-based
Experimental: Panc-1 cells are maintained in RPMI 1640 (Invitrogen 11875) media supplemented with 10% FBS, 1% Penicillin/Streptomycin and 1% Glutamax-1. Cells were plated in 96-well plates at 25×10^4 cells/ml. After 24 hours, compounds were added at 9, 3× dilutions in triplicate from 100 uM final concentration in the appropriate growth media. Plates were incubated for 72 hours at 37° C. in a 5% CO2/95% air humidified atmosphere after which time the media was removed and MTT was added in RPMI phenol red free media. The MTT was removed after 3 hours and formazan crystals were solubilized with 200 μL of isopropanol. Plates were read on a Molecular Devices SpectraMax i3 spectrophotometer at 570 nm for formazan and 690 nm for background subtraction. EC50 values were calculated by fitting the data in GraphPad Prism software.

SMILES	EC50 [µM]
Cc1nn(Cc2ccccc2)c(C)c1NC(=O)c1ccc(COc2ccccc2)cc1 [Compound A1, N-(1-Benzyl-3,5-dimethyl-1H-pyrazol-4-yl)-4-(phenoxymethyl)benzamide]	9
Cc1nn(Cc2ccc(C(N)=O)cc2)c(C)c1NC(=O)c1ccc(COc2ccccc2)cc1 [Compound A2a, N-(1-(4-Carbamoylbenzyl)-3,5-dimethyl-1H-pyrazol-4-yl)-4-(phenoxymethyl)benzamide]	> 100
